Measured values from article PMC9415947 (Pharmaceuticals, 2022).
pIC50: −log10 of the molar value.

Tests used:
[1] = molecular target: T1, PI3Kδ (Homo sapiens, UniProt O00329); assay: In vitro PI3K inhibition assay (ADP-Glo kinase assay), PI3Kδ; format: biochemical; conditions: mean of two independent experiments
T1 construct: purchased Merck Millipore
Experimental: (§1) All compounds were tested in a biochemical assay that measured the inhibition of phosphatidylinositol […] production by PI3K isoforms using the ADP-Glo kinase assay (Promega). In addition, the effects of synthesized compounds on B cell proliferation were measured.
(§2) The potency and selectivity of compounds were assessed by measuring the ability of PI3K kinases to convert ATP to ADP during an enzymatic reaction in the presence of decreasing doses of tested compounds. The experiments were carried out using the ADP-Glo kinase assay kit (Promega), according to the manufacturer’s protocol. PI3Kα, PI3Kβ, PI3Kδ, and PI3Kγ have been purchased from Merck Millipore and phosphoinositol-4,5-bisphosphate (PIP2) lipid vesicles with phosphoserine from ThermoFisher Scientific were used as a substrate in the enzymatic reaction.
(§3) After the reaction, the ADP-Glo reagent and the kinase detection reagent were added sequentially with 40 min of incubation (25 °C, 600 rpm) after adding each reagent. Finally, the luminescence intensity was measured and the IC50 was calculated using GraphPad Prism 7 software. The presented results are the mean value of IC50 from at least two independent experiments.

[2] = molecular target: T2, PI3Kγ (Homo sapiens, UniProt P48736); assay: In vitro PI3K inhibition assay (ADP-Glo kinase assay), PI3Kγ; format: biochemical; conditions: for pIC50: mean of two independent experiments; for Fold Selectivity γ/δ: ratio IC50 PI3Kγ / IC50 PI3Kδ
T2 construct: purchased Merck Millipore
Experimental: as §1, §2, §3

T1 sequence (O00329 whole entry, looked up): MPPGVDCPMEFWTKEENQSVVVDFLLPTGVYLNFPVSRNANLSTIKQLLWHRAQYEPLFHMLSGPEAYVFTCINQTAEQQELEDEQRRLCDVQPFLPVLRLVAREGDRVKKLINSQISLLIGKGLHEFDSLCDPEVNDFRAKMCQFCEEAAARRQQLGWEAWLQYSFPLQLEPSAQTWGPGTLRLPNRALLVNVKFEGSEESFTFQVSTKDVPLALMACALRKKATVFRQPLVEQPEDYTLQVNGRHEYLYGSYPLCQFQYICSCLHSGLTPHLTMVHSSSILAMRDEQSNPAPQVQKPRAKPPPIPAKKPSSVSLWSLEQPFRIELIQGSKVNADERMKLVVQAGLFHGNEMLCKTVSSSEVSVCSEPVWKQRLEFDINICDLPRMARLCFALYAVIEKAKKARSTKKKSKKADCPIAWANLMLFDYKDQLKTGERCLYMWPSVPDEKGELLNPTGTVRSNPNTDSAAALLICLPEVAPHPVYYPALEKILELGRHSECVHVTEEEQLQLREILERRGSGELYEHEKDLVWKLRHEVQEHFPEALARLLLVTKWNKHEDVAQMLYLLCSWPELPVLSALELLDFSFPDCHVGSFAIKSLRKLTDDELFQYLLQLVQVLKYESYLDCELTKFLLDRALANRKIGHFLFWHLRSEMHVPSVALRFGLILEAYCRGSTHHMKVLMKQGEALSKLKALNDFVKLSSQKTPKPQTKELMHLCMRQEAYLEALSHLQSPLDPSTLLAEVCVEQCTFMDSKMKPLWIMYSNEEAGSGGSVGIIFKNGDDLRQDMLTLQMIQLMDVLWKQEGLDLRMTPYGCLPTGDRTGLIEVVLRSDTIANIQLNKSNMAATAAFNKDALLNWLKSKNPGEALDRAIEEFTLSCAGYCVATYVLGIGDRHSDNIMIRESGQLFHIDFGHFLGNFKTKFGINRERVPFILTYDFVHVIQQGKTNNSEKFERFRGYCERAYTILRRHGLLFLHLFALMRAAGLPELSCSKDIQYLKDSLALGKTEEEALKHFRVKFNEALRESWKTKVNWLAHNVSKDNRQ
T2 sequence (P48736 whole entry): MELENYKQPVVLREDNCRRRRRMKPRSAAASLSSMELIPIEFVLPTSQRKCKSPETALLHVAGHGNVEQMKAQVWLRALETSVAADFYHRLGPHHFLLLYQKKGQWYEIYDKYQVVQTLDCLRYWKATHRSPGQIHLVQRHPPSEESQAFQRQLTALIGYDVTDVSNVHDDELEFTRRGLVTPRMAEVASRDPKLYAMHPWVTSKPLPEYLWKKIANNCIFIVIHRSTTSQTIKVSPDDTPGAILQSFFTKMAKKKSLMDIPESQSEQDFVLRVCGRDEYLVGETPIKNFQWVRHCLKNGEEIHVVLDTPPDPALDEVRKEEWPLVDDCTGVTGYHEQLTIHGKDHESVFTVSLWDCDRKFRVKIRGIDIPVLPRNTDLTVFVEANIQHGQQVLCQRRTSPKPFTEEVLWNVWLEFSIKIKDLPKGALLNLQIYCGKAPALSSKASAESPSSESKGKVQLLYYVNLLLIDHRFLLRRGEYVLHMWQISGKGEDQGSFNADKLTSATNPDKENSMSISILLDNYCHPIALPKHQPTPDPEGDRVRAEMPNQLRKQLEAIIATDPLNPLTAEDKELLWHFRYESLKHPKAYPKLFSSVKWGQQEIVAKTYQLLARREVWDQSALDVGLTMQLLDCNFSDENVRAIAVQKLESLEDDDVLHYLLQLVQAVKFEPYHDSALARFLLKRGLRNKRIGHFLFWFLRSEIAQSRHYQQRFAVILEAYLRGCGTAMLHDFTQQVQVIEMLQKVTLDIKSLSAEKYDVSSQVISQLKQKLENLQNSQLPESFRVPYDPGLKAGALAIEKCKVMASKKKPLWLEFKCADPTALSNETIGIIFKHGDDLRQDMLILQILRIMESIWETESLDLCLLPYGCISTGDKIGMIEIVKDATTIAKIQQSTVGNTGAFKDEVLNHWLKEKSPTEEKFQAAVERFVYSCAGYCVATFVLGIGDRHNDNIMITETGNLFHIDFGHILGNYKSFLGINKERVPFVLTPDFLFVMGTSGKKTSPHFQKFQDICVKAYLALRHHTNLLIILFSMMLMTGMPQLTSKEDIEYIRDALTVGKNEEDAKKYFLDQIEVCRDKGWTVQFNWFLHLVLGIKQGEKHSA

SMILES	pIC50 [1]	pIC50 [2]	Fold Selectivity γ/δ [2]
N#CC1CCN(C(=O)c2cc3nc(-n4c(C(F)F)nc5ccccc54)cc(N4CCOCC4)n3n2)CC1 [Compound 51, 1-{5-[2-(difluoromethyl)-1H-1,3-benzimidazol-1-yl]-7-(morpholin-4-yl)pyrazolo[1,5-a]pyrimidine-2-carbonyl}piperidine-4-carbonitrile]	6.46	5.79	4.7
CCOC(=O)C1CCCN(Cc2cc3nc(-n4c(C(F)F)nc5ccccc54)cc(N4CCOCC4)n3n2)C1 (stereo not shown) [Compound 26, 1-({5-[2-(difluoromethyl)-1H-1,3-benzodiazol-1-yl]-7-(morpholin-4-yl)pyrazolo[1,5-a]pyrimidin-2-yl}methyl)piperidine-3-carboxylate]	6.69	5.37	21
C[C@@H]1COCCN1Cc1cc2nc(-n3c(C(F)F)nc4ccccc43)cc(N3CCOCC3)n2n1 [Compound 25, 2-(difluoromethyl)-1-(2-{[(3R)-3-methylmorpholin-4-yl]methyl}-7-(morpholin-4-yl)pyrazolo[1,5-a]pyrimidin-5-yl)-1H-1,3-benzimidazole]	6.19	5.71	3.0
FC(F)c1nc2ccccc2n1-c1cc(N2CCOCC2)n2nc(CN3CCC(N4CCOCC4)CC3)cc2n1 [Compound 33, 2-(difluoromethyl)-1-[7-(morpholin-4-yl)-2-{[4-(morpholin-4-yl)piperidin-1-yl]methyl}pyrazolo[1,5-a]pyrimidin-5-yl]-1H-1,3-benzimidazole]	6.56	5.32	17
O[C@H]1CCN(Cc2cc3nc(-n4c(C(F)F)nc5ccccc54)cc(N4CCOCC4)n3n2)C1 [Compound 21, (3S)-1-({5-[2-(difluoromethyl)-1H-1,3-benzimidazol-1-yl]-7-(morpholin-4-yl)pyrazolo[1,5-a]pyrimidin-2-yl}methyl)pyrrolidin-3-ol]	6.02	4.96	11
C[C@H]1COCCN1Cc1cc2nc(-n3c(C(F)F)nc4ccccc43)cc(N3CCOCC3)n2n1 [Compound 24, 2-(difluoromethyl)-1-(2-{[(3S)-3-methylmorpholin-4-yl]methyl}-7-(morpholin-4-yl)pyrazolo[1,5-a]pyrimidin-5-yl)-1H-1,3-benzimidazole]	6.60	6.23	2.3
CC1(O)CCN(C(=O)c2cc3nc(-n4c(C(F)F)nc5ccccc54)cc(N4CCOCC4)n3n2)CC1 [Compound 49, 1-{5-[2-(difluoromethyl)-1H-1,3-benzimidazol-1-yl]-7-(morpholin-4-yl)pyrazolo[1,5-a]pyrimidine-2-carbonyl}-4-methylpiperidin-4-ol]	6.67	5.74	8.5
CC1(O)CCN(Cc2cc3nc(-n4c(C(F)F)nc5ccccc54)cc(N4CCOCC4)n3n2)CC1 [Compound 30, 1-({5-[2-(difluoromethyl)-1H-1,3-benzimidazol-1-yl]-7-(morpholin-4-yl)pyrazolo[1,5-a]pyrimidin-2-yl}methyl)-4-methylpiperidin-4-ol]	6.21	5.12	12
CN1CCN(C(=O)c2cc3nc(-n4c(C(F)F)nc5ccccc54)cc(N4CCOCC4)n3n2)CC1 [Compound 56, 2-(difluoromethyl)-1-[2-(4-methylpiperazine-1-carbonyl)-7-(morpholin-4-yl)pyrazolo[1,5-a]pyrimidin-5-yl]-1H-1,3-benzimidazole]	6.11	4.94	–
OCC1CCCN1Cc1cc2nc(-n3c(C(F)F)nc4ccccc43)cc(N3CCOCC3)n2n1 (stereo not shown) [Compound 19, [1-({5-[2-(difluoromethyl)-1H-1,3-benzimidazol-1-yl]-7-(morpholin-4-yl)pyrazolo[1,5-a]pyrimidin-2-yl}methyl)pyrrolidin-2-yl]methanol]	5.97	5.35	4.2
O=C(c1cc2nc(-n3c(C(F)F)nc4ccccc43)cc(N3CCOCC3)n2n1)N1CCC(F)(F)CC1 [Compound 47, 2-(difluoromethyl)-1-[2-(4,4-difluoropiperidine-1-carbonyl)-7-(morpholin-4-yl)pyrazolo[1,5-a]pyrimidin-5-yl]-1H-1,3-benzimidazole]	6.10	4.45	45
CC(C)(C(N)=O)N1CCN(C(=O)c2cc3nc(-n4c(C(F)F)nc5ccccc54)cc(N4CCOCC4)n3n2)CC1 [Compound 42, 2-(4-{5-[2-(difluoromethyl)-1H-1,3-benzimidazol-1-yl]-7-(morpholin-4-yl)pyrazolo[1,5-a]pyrimidine-2-carbonyl}piperazin-1-yl)-2-methylpropanamide]	7.13	5.44	48
CC(=O)NC1CCN(C(=O)c2cc3nc(-n4c(C(F)F)nc5ccccc54)cc(N4CCOCC4)n3n2)CC1 [Compound 54, N-(1-{5-[2-(difluoromethyl)-1H-1,3-benzimidazol-1-yl]-7-(morpholin-4-yl)pyrazolo[1,5-a]pyrimidine-2-carbonyl}piperidin-4-yl)acetamide]	6.85	5.77	12
O=C(c1cc2nc(-n3c(C(F)F)nc4ccccc43)cc(N3CCOCC3)n2n1)N1CCC(N2CCOCC2)CC1 [Compound 52, 2-(difluoromethyl)-1-[7-(morpholin-4-yl)-2-[4-(morpholin-4-yl)piperidine-1-carbonyl]pyrazolo[1,5-a]pyrimidin-5-yl]-1H-1,3-benzimidazole]	7.04	5.23	65
O=C(c1cc2nc(-n3c(C(F)F)nc4ccccc43)cc(N3CCOCC3)n2n1)N1CCOCC1 [Compound 46, 2-(difluoromethyl)-1-[7-(morpholin-4-yl)-2-(morpholine-4-carbonyl)pyrazolo[1,5-a]pyrimidin-5-yl]-1H-1,3-benzimidazole]	6.65	5.07	38
CN1CCN(Cc2cc3nc(-n4c(C(F)F)nc5ccccc54)cc(N4CCOCC4)n3n2)CC1 [Compound 37, 2-(difluoromethyl)-1-{2-[(4-methylpiperazin-1-yl)methyl]-7-(morpholin-4-yl)pyrazolo[1,5-a]pyrimidin-5-yl}-1H-1,3-benzimidazole]	6.45	4.75	50
O[C@@H]1CCN(Cc2cc3nc(-n4c(C(F)F)nc5ccccc54)cc(N4CCOCC4)n3n2)C1 [Compound 22, (3R)-1-({5-[2-(difluoromethyl)-1H-1,3-benzimidazol-1-yl]-7-(morpholin-4-yl)pyrazolo[1,5-a]pyrimidin-2-yl}methyl)pyrrolidin-3-ol]	6.01	5.07	8.6
N#CC1CCN(Cc2cc3nc(-n4c(C(F)F)nc5ccccc54)cc(N4CCOCC4)n3n2)CC1 [Compound 32, 1-({5-[2-(difluoromethyl)-1H-1,3-benzimidazol-1-yl]-7-(morpholin-4-yl)pyrazolo[1,5-a]pyrimidin-2-yl}methyl)piperidine-4-carbonitrile]	6.72	5.50	16
OC1CCN(Cc2cc3nc(-n4c(C(F)F)nc5ccccc54)cc(N4CCOCC4)n3n2)CC1 [Compound 34, 1-({5-[2-(difluoromethyl)-1H-1,3-benzimidazol-1-yl]-7-(morpholin-4-yl)pyrazolo[1,5-a]pyrimidin-2-yl}methyl)piperidin-4-ol]	6.25	5.36	7.7
CNC(=O)CN1CCN(C(=O)c2cc3nc(-n4c(C(F)F)nc5ccccc54)cc(N4CCOCC4)n3n2)CC1 [Compound 55, 2-(4-{5-[2-(difluoromethyl)-1H-1,3-benzimidazol-1-yl]-7-(morpholin-4-yl)pyrazolo[1,5-a]pyrimidine-2-carbonyl}piperazin-1-yl)-N-methylacetamide]	7.09	5.66	26
NC(=O)C1CCN(C(=O)c2cc3nc(-n4c(C(F)F)nc5ccccc54)cc(N4CCOCC4)n3n2)CC1 [Compound 48, 1-{5-[2-(difluoromethyl)-1H-1,3-benzimidazol-1-yl]-7-(morpholin-4-yl)pyrazolo[1,5-a]pyrimidine-2-carbonyl}piperidine-4-carboxamide]	6.50	5.55	9
O=C(c1cc2nc(-n3c(C(F)F)nc4ccccc43)cc(N3CCOCC3)n2n1)N1CCC(O)CC1 [Compound 53, 1-{5-[2-(difluoromethyl)-1H-1,3-benzimidazol-1-yl]-7-(morpholin-4-yl)pyrazolo[1,5-a]pyrimidine-2-carbonyl}piperidin-4-ol]	6.71	5.68	11
CC(C)N1CCN(C(=O)c2cc3nc(-n4c(C(F)F)nc5ccccc54)cc(N4CCOCC4)n3n2)CC1 [Compound 57, 2-(difluoromethyl)-1-[7-(morpholin-4-yl)-2-[4-(propan-2-yl)piperazine-1-carbonyl]pyrazolo[1,5-a]pyrimidin-5-yl]-1H-1,3-benzimidazole]	6.57	4.59	–
FC(F)c1nc2ccccc2n1-c1cc(N2CCOCC2)n2nc(CN3CCOCC3)cc2n1 [Compound 23, 2-(difluoromethyl)-1-[7-(morpholin-4-yl)-2-(morpholin-4-ylmethyl)pyrazolo[1,5-a]pyrimidin-5-yl]-1H-1,3-benzimidazole]	6.87	5.86	10
